Drawing on ChEMBL document CHEMBL3046091, “Synthesis and antimicrobial activities of 2-azetidinyl-4-quinazolinone derivatives of diclofenac analogue” (2011), this text covers zone of inhibition and Activity for twelve molecules.

What all share (format): functional
The test system of test [1] is Pseudomonas aeruginosa. The test is described as follows: Antibacterial activity against Pseudomonas aeruginosa ATCC 9027 at 50 ug/ml by cup-plate method. Conditions: read-out: IZ.
In test [2] the test system is Pseudomonas aeruginosa. The test is described as follows: Antibacterial activity against Pseudomonas aeruginosa ATCC 9027 at 50 to 100 ug/ml by cup-plate method.
Test [3] has as its system Pseudomonas aeruginosa. The test is described as follows: Antibacterial activity against Pseudomonas aeruginosa ATCC 9027 at 100 ug/ml by cup-plate method. Conditions: read-out: IZ.
Test [4] has as its system Bacillus subtilis. The test is described as follows: Antibacterial activity against Bacillus subtilis ATCC 6633 at 50 ug/ml by cup-plate method. The following applies: read-out: IZ.
Test [5] deals with Bacillus subtilis. The test is described as follows: Antibacterial activity against Bacillus subtilis ATCC 6633 at 50 to 100 ug/ml by cup-plate method.
Test [6] deals with Bacillus subtilis. The test is described as follows: Antibacterial activity against Bacillus subtilis ATCC 6633 at 100 ug/ml by cup-plate method. The following applies: read-out: IZ.
The subject of test [7] is Staphylococcus aureus. The test is described as follows: Antibacterial activity against Staphylococcus aureus ATCC 9144 at 50 to 100 ug/ml by cup-plate method.
In test [8] the test system is Staphylococcus aureus. The test is described as follows: Antibacterial activity against Staphylococcus aureus ATCC 9144 at 50 ug/ml by cup-plate method. Conditions: read-out: IZ.
Test [9] relates to Staphylococcus aureus. The test is described as follows: Antibacterial activity against Staphylococcus aureus ATCC 9144 at 100 ug/ml by cup-plate method. The following applies: read-out: IZ.
Test [10] concerns Candida albicans. The test is described as follows: Antifungal activity against Candida albicans ATCC 10231 at 100 ug/ml by cup-plate method. The following applies: read-out: IZ.
Test [11] has as its system Candida albicans. The test is described as follows: Antifungal activity against Candida albicans ATCC 10231 at 50 ug/ml by cup-plate method. The following applies: read-out: IZ.
Test [12] deals with Escherichia coli. The test is described as follows: Antibacterial activity against Escherichia coli ATCC 25922 at 50 ug/ml by cup-plate method. The following applies: read-out: IZ.
Test [13] concerns Escherichia coli. The test is described as follows: Antibacterial activity against Escherichia coli ATCC 25922 at 50 to 100 ug/ml by cup-plate method.
Test [14] concerns Escherichia coli. The test is described as follows: Antibacterial activity against Escherichia coli ATCC 25922 at 100 ug/ml by cup-plate method. The following applies: read-out: IZ.

Turning to `O=c1c2cc(Br)ccc2nc(Cc2ccccc2Nc2c(Cl)cccc2Cl)n1-c1ccc(/N=C/c2ccccc2O)cc1`, the zone of inhibition at 50 µg/mL with Pseudomonas aeruginosa [1] amounted to 2 mm; with Bacillus subtilis [4], 3 mm; in the test on Staphylococcus aureus [8], 3 mm; in the test on Candida albicans [11], 0 mm; in the test with Escherichia coli [12], 3 mm. Also, the Activity with Pseudomonas aeruginosa [2] is reported as 38.83%; with Bacillus subtilis [5], 36%; in the test with Staphylococcus aureus [7], 42.87%; in the test on Escherichia coli [13], 36.74%. In addition, the zone of inhibition at 100 µg/mL with Pseudomonas aeruginosa [3] was found to be 4 mm; in the test with Bacillus subtilis [6], 5 mm; in the test on Staphylococcus aureus [9] it was 5 mm; in the test with Candida albicans [10], 1 mm; in the test with Escherichia coli [14], 5 mm.
With `CCN(CC)c1ccc(/C=N/c2ccc(-n3c(Cc4ccccc4Nc4c(Cl)cccc4Cl)nc4ccc(Br)cc4c3=O)cc2)c(O)c1`, the zone of inhibition at 50 µg/mL in the test with Pseudomonas aeruginosa [1], in the test on Bacillus subtilis [4], in the test on Staphylococcus aureus [8], with Candida albicans [11] and in the test on Escherichia coli [12] was 0 mm in each case. In addition, the Activity in the test with Pseudomonas aeruginosa [2], in the test with Bacillus subtilis [5], in the test on Staphylococcus aureus [7] and in the test on Escherichia coli [13] was 0% throughout. Further, the zone of inhibition at 100 µg/mL with Pseudomonas aeruginosa [3], in the test on Bacillus subtilis [6], in the test with Staphylococcus aureus [9], with Candida albicans [10] and with Escherichia coli [14] was 0 mm in each case.
Consider `O=C1C(Cl)C(c2ccccc2[N+](=O)[O-])N1c1ccc(-n2c(Cc3ccccc3Nc3c(Cl)cccc3Cl)nc3ccc(Br)cc3c2=O)cc1` (stereo not drawn), for which the zone of inhibition at 50 µg/mL in the test on Pseudomonas aeruginosa [1] stood at 3 mm; in the test with Bacillus subtilis [4], 3 mm; in the test with Staphylococcus aureus [8], 2 mm; with Candida albicans [11] it was 1 mm; in the test on Escherichia coli [12] it was 3 mm. Also, the Activity in the test with Pseudomonas aeruginosa [2] turned out to be 46.93%; with Bacillus subtilis [5] it was 42.68%; in the test on Staphylococcus aureus [7], 36.75%; in the test with Escherichia coli [13], 37.56%. In addition, the zone of inhibition at 100 µg/mL turned out to be 6 mm with Pseudomonas aeruginosa [3]; 6 mm in the test with Bacillus subtilis [6]; 4 mm with Staphylococcus aureus [9]; 2 mm with Candida albicans [10]; 5 mm with Escherichia coli [14].
`O=c1c2cc(Br)ccc2nc(Cc2ccccc2Nc2c(Cl)cccc2Cl)n1-c1ccc(/N=C/c2cccc([N+](=O)[O-])c2)cc1`: the zone of inhibition at 50 µg/mL stood at 1 mm in the test on Pseudomonas aeruginosa [1]; 2 mm in the test with Bacillus subtilis [4]; 1 mm with Staphylococcus aureus [8]; 1 mm in the test on Candida albicans [11]; 1 mm in the test on Escherichia coli [12]. For the same molecule, the Activity in the test on Pseudomonas aeruginosa [2] is reported as 33.92%; in the test on Bacillus subtilis [5], 24.99%; in the test with Staphylococcus aureus [7], 29.73%; with Escherichia coli [13], 28.39%. Also, the zone of inhibition at 100 µg/mL in the test with Pseudomonas aeruginosa [3] came to 3 mm; with Bacillus subtilis [6], 3 mm; with Staphylococcus aureus [9], 3 mm; in the test with Candida albicans [10] it was 2 mm; in the test with Escherichia coli [14], 3 mm.
Consider `O=c1c2cc(Br)ccc2nc(Cc2ccccc2Nc2c(Cl)cccc2Cl)n1-c1ccc(/N=C/c2ccc(O)cc2)cc1`, for which the zone of inhibition at 50 µg/mL was 2 mm with Pseudomonas aeruginosa [1]; 2 mm in the test with Bacillus subtilis [4]; 3 mm with Staphylococcus aureus [8]; 0 mm in the test on Candida albicans [11]; 2 mm in the test with Escherichia coli [12]. Also, the Activity in the test on Pseudomonas aeruginosa [2] stood at 44.55%; in the test with Bacillus subtilis [5] it was 30.5%; in the test on Staphylococcus aureus [7], 34.85%; in the test on Escherichia coli [13], 31.5%. Besides, the zone of inhibition at 100 µg/mL in the test on Pseudomonas aeruginosa [3] came out at 5 mm; in the test with Bacillus subtilis [6], 4 mm; in the test on Staphylococcus aureus [9], 4 mm; with Candida albicans [10], 1 mm; in the test on Escherichia coli [14], 4 mm.
Take `O=c1c2cc(Br)ccc2nc(Cc2ccccc2Nc2c(Cl)cccc2Cl)n1-c1ccc(/N=C/c2ccccc2Cl)cc1`: the zone of inhibition at 50 µg/mL in the test with Pseudomonas aeruginosa [1] came out at 3 mm; with Bacillus subtilis [4] it was 3 mm; in the test on Staphylococcus aureus [8], 3 mm; with Candida albicans [11] it was 1 mm; in the test with Escherichia coli [12], 3 mm. The Activity came out at 44.44% with Pseudomonas aeruginosa [2], 42.68% in the test with Bacillus subtilis [5], 50.98% in the test with Staphylococcus aureus [7] and 37.56% with Escherichia coli [13]. In addition, the zone of inhibition at 100 µg/mL in the test on Pseudomonas aeruginosa [3] was determined as 5 mm; in the test with Bacillus subtilis [6], 6 mm; with Staphylococcus aureus [9], 6 mm; in the test with Candida albicans [10] it was 2 mm; in the test on Escherichia coli [14] it was 5 mm.
Consider `O=c1c2cc(Br)ccc2nc(Cc2ccccc2Nc2c(Cl)cccc2Cl)n1-c1ccc(/N=C/c2ccc(Cl)cc2)cc1`, for which the zone of inhibition at 50 µg/mL in the test on Pseudomonas aeruginosa [1] amounted to 3 mm; with Bacillus subtilis [4] it was 5 mm; with Staphylococcus aureus [8] it was 4 mm; in the test with Candida albicans [11], 2 mm; in the test on Escherichia coli [12], 5 mm. The Activity in the test with Pseudomonas aeruginosa [2] amounted to 46.93%; in the test on Bacillus subtilis [5], 59.79%; with Staphylococcus aureus [7], 50.88%; with Escherichia coli [13] it was 49.68%. The zone of inhibition at 100 µg/mL was 6 mm with Pseudomonas aeruginosa [3]; 9 mm with Bacillus subtilis [6]; 6 mm in the test with Staphylococcus aureus [9]; 4 mm with Candida albicans [10]; 7 mm with Escherichia coli [14].
Consider `COc1ccc(/C=N/c2ccc(-n3c(Cc4ccccc4Nc4c(Cl)cccc4Cl)nc4ccc(Br)cc4c3=O)cc2)cc1`, for which the zone of inhibition at 50 µg/mL in the test on Pseudomonas aeruginosa [1] turned out to be 3 mm; in the test on Bacillus subtilis [4], 5 mm; in the test with Staphylococcus aureus [8], 4 mm; in the test on Candida albicans [11], 2 mm; in the test with Escherichia coli [12] it was 5 mm. Besides, the Activity in the test with Pseudomonas aeruginosa [2] stood at 52.88%; in the test with Bacillus subtilis [5] it was 63.91%; in the test on Staphylococcus aureus [7], 53.85%; with Escherichia coli [13], 64.33%. The zone of inhibition at 100 µg/mL was found to be 6 mm in the test on Pseudomonas aeruginosa [3]; 9 mm in the test on Bacillus subtilis [6]; 7 mm in the test on Staphylococcus aureus [9]; 3 mm in the test on Candida albicans [10]; 9 mm with Escherichia coli [14].
In the case of `COc1cc(/C=N/c2ccc(-n3c(Cc4ccccc4Nc4c(Cl)cccc4Cl)nc4ccc(Br)cc4c3=O)cc2)cc(OC)c1OC`, the zone of inhibition at 50 µg/mL with Pseudomonas aeruginosa [1] amounted to 2 mm; with Bacillus subtilis [4], 4 mm; in the test with Staphylococcus aureus [8], 3 mm; with Candida albicans [11], 1 mm; in the test with Escherichia coli [12], 4 mm. Moreover, the Activity with Pseudomonas aeruginosa [2] was 47.09%; in the test on Bacillus subtilis [5], 53.33%; in the test with Staphylococcus aureus [7], 50.98%; in the test on Escherichia coli [13], 50%. The zone of inhibition at 100 µg/mL in the test on Pseudomonas aeruginosa [3] was 5 mm; in the test on Bacillus subtilis [6], 8 mm; in the test on Staphylococcus aureus [9], 6 mm; in the test with Candida albicans [10], 2 mm; with Escherichia coli [14], 7 mm.
Consider `COc1ccc(/C=N/c2ccc(-n3c(Cc4ccccc4Nc4c(Cl)cccc4Cl)nc4ccc(Br)cc4c3=O)cc2)c(O)c1`, for which the zone of inhibition at 50 µg/mL was 2 mm in the test with Pseudomonas aeruginosa [1]; 4 mm in the test with Bacillus subtilis [4]; 4 mm with Staphylococcus aureus [8]; 0 mm in the test on Candida albicans [11]; 4 mm in the test on Escherichia coli [12]. For the same molecule, the Activity in the test with Pseudomonas aeruginosa [2] came out at 38.83%; with Bacillus subtilis [5] it was 47.81%; in the test on Staphylococcus aureus [7] it was 50%; in the test on Escherichia coli [13], 42.86%. Also, the zone of inhibition at 100 µg/mL was 4 mm with Pseudomonas aeruginosa [3]; 7 mm in the test with Bacillus subtilis [6]; 6 mm with Staphylococcus aureus [9]; 0 mm with Candida albicans [10]; 6 mm in the test with Escherichia coli [14].
As to `CN(C)c1ccc(/C=N/c2ccc(-n3c(Cc4ccccc4Nc4c(Cl)cccc4Cl)nc4ccc(Br)cc4c3=O)cc2)cc1`, the zone of inhibition at 50 µg/mL in the test on Pseudomonas aeruginosa [1], in the test on Bacillus subtilis [4], in the test with Staphylococcus aureus [8], with Candida albicans [11] and in the test on Escherichia coli [12] was 0 mm each time. The Activity in the test with Pseudomonas aeruginosa [2], with Bacillus subtilis [5], with Staphylococcus aureus [7] and in the test with Escherichia coli [13] was 0% throughout. For the same molecule, the zone of inhibition at 100 µg/mL turned out to be 0 mm in the test on Pseudomonas aeruginosa [3]; 0 mm with Bacillus subtilis [6]; 0 mm in the test on Staphylococcus aureus [9]; 1 mm in the test with Candida albicans [10]; 0 mm in the test with Escherichia coli [14].
Turning to `O=c1c2cc(Br)ccc2nc(Cc2ccccc2Nc2c(Cl)cccc2Cl)n1-c1ccc(/N=C/c2ccccc2[N+](=O)[O-])cc1`, the zone of inhibition at 50 µg/mL with Pseudomonas aeruginosa [1] was 2 mm; in the test with Bacillus subtilis [4], 3 mm; in the test with Staphylococcus aureus [8] it was 2 mm; in the test on Candida albicans [11] it was 1 mm; in the test on Escherichia coli [12], 2 mm. The Activity is listed as 35.33% in the test with Pseudomonas aeruginosa [2], 36% with Bacillus subtilis [5], 28.43% with Staphylococcus aureus [7] and 32.65% in the test on Escherichia coli [13]. The zone of inhibition at 100 µg/mL is 4 mm in the test on Pseudomonas aeruginosa [3]; 5 mm in the test with Bacillus subtilis [6]; 3 mm with Staphylococcus aureus [9]; 2 mm in the test on Candida albicans [10]; 4 mm in the test with Escherichia coli [14].
